The source made the active and inactive calls. The rule behind the calls is not given here. Positions of bridges follow the written chain, without caps; N, C: chain ends. Residues, ends and D or L forms follow the SMILES beside them.
Columns and labels:
[1] = molecular target: Neuronal acetylcholine receptor subunit alpha-7 (Rattus norvegicus, UniProt Q05941)
[2] = molecular target: Acetylcholine-binding protein (Lymnaea stagnalis, UniProt P58154)
[3] = molecular target: Neuronal acetylcholine receptor subunit alpha-7 (Rattus norvegicus) (UniProt Q05941); assay: Activity at rat alpha7 nAChR expressed in Xenopus laevis assessed as inhibition of acetylcholine-induced current at holding potential of -80 mV up to 10 uM by two-electrode voltage clamp technique
[4] = Stability assessed as half life of native globular conformation state in presence of reduced glutathione at 500 uM; type: physicochemical; details: solution with 500 uM reduced glutathione
physchem = details: solution with 500 uM reduced glutathione
[5] = Stability assessed as loss of native globular conformation level in presence of reduced glutathione at 500 uM at 2 hrs; type: physicochemical; details: solution with 500 uM reduced glutathione; read-out: Activity
[6] = molecular target: Neuronal acetylcholine receptor subunit alpha-7 (Rattus norvegicus) (UniProt Q05941); assay: Activity at rat alpha7 nAChR expressed in Xenopus laevis assessed as inhibition of acetylcholine-induced current at holding potential of -80 mV up to 1 uM by two-electrode voltage clamp technique
[7] = Stability assessed as native globular conformation level in presence of reduced glutathione at 500 uM at 24 hrs; type: physicochemical; details: solution with 500 uM reduced glutathione; read-out: Stability

Sequence of Neuronal acetylcholine receptor subunit alpha-7 (Q05941 whole entry): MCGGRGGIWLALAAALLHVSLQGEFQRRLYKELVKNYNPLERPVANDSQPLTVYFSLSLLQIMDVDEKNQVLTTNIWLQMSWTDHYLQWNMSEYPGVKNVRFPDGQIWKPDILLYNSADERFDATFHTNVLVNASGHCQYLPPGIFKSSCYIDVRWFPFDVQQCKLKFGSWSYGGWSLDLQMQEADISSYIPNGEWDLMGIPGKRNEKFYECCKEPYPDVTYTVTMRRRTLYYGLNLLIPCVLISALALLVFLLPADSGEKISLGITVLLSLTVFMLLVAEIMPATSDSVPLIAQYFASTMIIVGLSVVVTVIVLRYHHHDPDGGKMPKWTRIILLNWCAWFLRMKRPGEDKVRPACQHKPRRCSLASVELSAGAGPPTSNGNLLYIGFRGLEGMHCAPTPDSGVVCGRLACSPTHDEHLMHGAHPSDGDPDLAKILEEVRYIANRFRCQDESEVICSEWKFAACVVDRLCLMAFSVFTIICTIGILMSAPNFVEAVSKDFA
Sequence of Neuronal acetylcholine receptor subunit alpha-7 (Rattus norvegicus) (Q05941 whole entry): as above
Sequence of Acetylcholine-binding protein (P58154 whole entry): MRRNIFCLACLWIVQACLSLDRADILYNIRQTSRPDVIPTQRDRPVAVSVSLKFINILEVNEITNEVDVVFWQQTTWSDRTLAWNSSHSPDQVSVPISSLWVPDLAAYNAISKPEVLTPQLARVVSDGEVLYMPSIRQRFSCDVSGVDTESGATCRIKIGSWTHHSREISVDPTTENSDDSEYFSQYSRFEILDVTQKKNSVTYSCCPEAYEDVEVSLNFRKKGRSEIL

| SMILES | IC50 [1] | Ki [2] | Activity [3] | half-life [4] | remaining at 8 h, 500 µM (physchem) | degraded at 2 h [5] | Activity [6] | remaining at 24 h [7] |
| --- | --- | --- | --- | --- | --- | --- | --- | --- |
| CC(C)C[C@@H]1NC(=O)[C@H](C)NC(=O)[C@@H]2CSSC[C@H](NC(=O)CN)C(=O)N[C@@H](CSSC[C@@H](C(=O)O)NC(=O)[C@H](CC(=O)O)NC(=O)[C@@H]3CCCN3C(=O)[C@H](CC(N)=O)NC(=O)[C@H](CC(N)=O)NC1=O)C(=O)N[C@@H](CO)C(=O)N[C@@H](CC(C)C)C(=O)N1CCC[C@H]1C(=O)N1CCC[C@H]1C(=O)N2 (H-GCCSLPPCALNNPDC-OH; disulfide 2-8, 3-15) | 115 nM | 3100 nM | inactive | 2 h | 40% |  |  |  |
| CC(C)C[C@@H]1NC(=O)[C@H](C)NC(=O)[C@@H]2CSSC[C@H](NC(=O)CN)C(=O)N[C@@H](CSSC[C@@H](C(=O)O)NC(=O)[C@@H]3CCCN3C(=O)[C@H](CC(N)=O)NC(=O)[C@H](CC(N)=O)NC1=O)C(=O)N[C@@H](CO)C(=O)N[C@@H](CC(C)C)C(=O)N1CCC[C@H]1C(=O)N1CCC[C@H]1C(=O)N2 (H-GCCSLPPCALNNPC-OH; disulfide 2-8, 3-14) | 79 nM | 4600 nM |  | < 0.5 h |  | > 80% |  |  |
| CC(C)C[C@@H]1NC(=O)[C@H](C)NC(=O)[C@@H]2CSSC[C@H](NC(=O)CN)C(=O)N[C@@H](CSSC[C@@H](C(=O)O)NC(=O)[C@H](CC(N)=O)NC(=O)[C@H](CC(N)=O)NC1=O)C(=O)N[C@@H](CO)C(=O)N[C@@H](CC(C)C)C(=O)N1CCC[C@H]1C(=O)N1CCC[C@H]1C(=O)N2 (H-GCCSLPPCALNNC-OH; disulfide 2-8, 3-13) | 207 nM | 4500 nM |  | < 0.5 h |  | > 80% |  |  |
| CC(C)C[C@@H]1NC(=O)[C@H](CO)NC(=O)[C@@H]2CSSC[C@@H](C(=O)O)NC(=O)[C@H](Cc3ccc(O)cc3)NC(=O)[C@H](CC(=O)O)NC(=O)[C@@H]3CCCN3C(=O)[C@H](CC(N)=O)NC(=O)[C@H](CC(N)=O)NC(=O)[C@H](C)NC(=O)[C@H](C)NC(=O)[C@H](CSSC[C@H](NC(=O)CN)C(=O)N2)NC(=O)[C@@H]2CCCN2C(=O)[C@@H]2CCCN2C1=O (H-GCCSLPPCAANNPDYC-OH; disulfide 2-8, 3-16) | 252 nM | 124 nM |  |  |  |  |  |  |
| CC(C)C[C@@H]1NC(=O)[C@H](C)NC(=O)[C@@H]2CSSC[C@H](NC(=O)CN)C(=O)N[C@@H](CSSC[C@@H](C(=O)O)NC(=O)[C@H](CC(N)=O)NC1=O)C(=O)N[C@@H](CO)C(=O)N[C@@H](CC(C)C)C(=O)N1CCC[C@H]1C(=O)N1CCC[C@H]1C(=O)N2 (H-GCCSLPPCALNC-OH; disulfide 2-8, 3-12) | > 10000 nM | 7900 nM |  | < 0.5 h |  | > 80% | inactive |  |
| CC(C)C[C@@H]1NC(=O)[C@H](C)NC(=O)[C@@H]2CSSC[C@H](NC(=O)CN)C(=O)N[C@@H](CSSC[C@@H](C(=O)O)NC(=O)[C@H](CC(N)=O)NC1=O)C(=O)N[C@@H](CO)C(=O)N[C@@H](CC(C)C)C(=O)N1CCC[C@H]1C(=O)N[C@@H](CCCNC(=N)N)C(=O)N2 (H-GCCSLPRCALNC-OH; disulfide 2-8, 3-12) |  |  | inactive | 1 h |  |  |  | 40% |

— ChEMBL document CHEMBL1140075 (J Med Chem, 2008)
